# Experimental data as given in patent US10941138B2, “Quinoline and isoquinoline derivatives for treating pain and pain related conditions” (ESTEVE PHARMACEUTICALS, S.A., priority 2016, dated 2021).
# Read-outs that look alike come from different tables or passages of the source.
# Assays:
# [1] = target: human α2δ-1 subunit of Cav2.2 calcium channel (Homo sapiens (Human), UniProt P54289); assay: Binding assay to human α2δ-1 subunit of Cav2.2 calcium channel ([3H]-Gabapentin); details: read-out: Ki (nM) alpha2delta Hum
# Protocol: Binding Assay to Human α2δ-1 Subunit of Cav2.2 Calcium Channel.
# Human α2δ-1 enriched membranes (2.5 μg) were incubated with 15 nM of radiolabeled [3H]-Gabapentin in assay buffer containing Hepes-KOH 10 mM, pH 7.4.
# NSB (non specific binding) was measured by adding 10 μM pregabalin. The binding of the test compound was measured at five different concentrations. After 60 min incubation at 27° C., binding reaction was terminated by filtering through Multiscreen GF/C (Millipore) presoaked in 0.5% polyethyleneimine in Vacuum Manifold Station, followed by 3 washes with ice-cold filtration buffer containing 50 mM Tris-HCl, pH 7.4. Filter plates were dried at 60° C. for 1 h and 30 μl of scintillation cocktail were added to each well before radioactivity reading.
# (§1) Readings were performed in a Trilux 1450 Microbeta radioactive counter (Perkin Elmer).
# [2] = target: human norepinephrine transporter (NET) (Homo sapiens (Human), UniProt P23975); assay: Binding assay to human norepinephrine transporter (NET) ([3H]-Nisoxetin); details: Table 2, dual compounds, human NET enriched membranes, read-out: Ki (nM) NET Hum
# Protocol: Binding Assay to Human Norepinephrine Transporter (NET).
# Human norepinephrine transporter (NET) enriched membranes (5 μg) were incubated with 5 nM of radiolabeled [3H]-Nisoxetin in assay buffer containing 50 mM Tris-HCl, 120 mM NaCl, 5 mM KCl, pH 7.4.
# NSB (non specific binding) was measured by adding desipramine 10 μM. The binding of the test compound was measured at five different concentrations. After 60 min incubation at 4° C., binding reaction was terminated by filtering through Multiscreen GF/C (Millipore) presoaked in 0.5% polyethyleneimine in Vacuum Manifold Station, followed by 3 washes with ice-cold filtration buffer containing 50 mM Tris-HCl, 0.9% NaCl, pH 7.4.
# Filter plates were dried at 60° C. for 1 h and 30 μl of scintillation cocktail were added to each well before radioactivity reading.
# as §1
# [3] = Table 1, human α2δ-1 enriched membranes
# [4] = Table 2, dual compounds, human α2δ-1 enriched membranes
# Sequence of human α2δ-1 subunit of Cav2.2 calcium channel (P54289 25-1103): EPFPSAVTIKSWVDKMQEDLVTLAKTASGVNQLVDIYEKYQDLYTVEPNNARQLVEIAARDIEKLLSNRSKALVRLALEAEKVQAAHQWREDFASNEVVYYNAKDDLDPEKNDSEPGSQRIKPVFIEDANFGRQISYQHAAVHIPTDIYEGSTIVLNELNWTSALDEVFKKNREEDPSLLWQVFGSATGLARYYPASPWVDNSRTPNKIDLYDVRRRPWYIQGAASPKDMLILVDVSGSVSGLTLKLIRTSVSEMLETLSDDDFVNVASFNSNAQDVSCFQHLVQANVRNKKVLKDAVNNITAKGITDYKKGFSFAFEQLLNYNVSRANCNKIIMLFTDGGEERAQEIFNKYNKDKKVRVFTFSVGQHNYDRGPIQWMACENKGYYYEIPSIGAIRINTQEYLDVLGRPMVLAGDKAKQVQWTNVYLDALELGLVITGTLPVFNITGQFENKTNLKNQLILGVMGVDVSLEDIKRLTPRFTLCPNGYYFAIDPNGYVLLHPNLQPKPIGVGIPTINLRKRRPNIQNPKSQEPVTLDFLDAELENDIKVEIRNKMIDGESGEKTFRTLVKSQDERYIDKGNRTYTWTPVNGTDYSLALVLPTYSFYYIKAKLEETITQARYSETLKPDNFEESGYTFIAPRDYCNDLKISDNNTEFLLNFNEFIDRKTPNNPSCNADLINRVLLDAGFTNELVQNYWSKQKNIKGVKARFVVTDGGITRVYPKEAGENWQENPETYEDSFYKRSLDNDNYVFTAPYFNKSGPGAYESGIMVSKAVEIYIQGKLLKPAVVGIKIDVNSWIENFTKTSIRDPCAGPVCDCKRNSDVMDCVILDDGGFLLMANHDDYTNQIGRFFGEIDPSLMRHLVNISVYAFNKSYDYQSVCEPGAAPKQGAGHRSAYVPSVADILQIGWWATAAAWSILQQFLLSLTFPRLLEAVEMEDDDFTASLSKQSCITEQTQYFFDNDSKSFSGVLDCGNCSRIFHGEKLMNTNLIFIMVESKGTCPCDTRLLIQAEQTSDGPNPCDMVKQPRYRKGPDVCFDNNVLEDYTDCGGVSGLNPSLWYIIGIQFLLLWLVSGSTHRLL
# Sequence of human norepinephrine transporter (NET) (P23975 whole entry): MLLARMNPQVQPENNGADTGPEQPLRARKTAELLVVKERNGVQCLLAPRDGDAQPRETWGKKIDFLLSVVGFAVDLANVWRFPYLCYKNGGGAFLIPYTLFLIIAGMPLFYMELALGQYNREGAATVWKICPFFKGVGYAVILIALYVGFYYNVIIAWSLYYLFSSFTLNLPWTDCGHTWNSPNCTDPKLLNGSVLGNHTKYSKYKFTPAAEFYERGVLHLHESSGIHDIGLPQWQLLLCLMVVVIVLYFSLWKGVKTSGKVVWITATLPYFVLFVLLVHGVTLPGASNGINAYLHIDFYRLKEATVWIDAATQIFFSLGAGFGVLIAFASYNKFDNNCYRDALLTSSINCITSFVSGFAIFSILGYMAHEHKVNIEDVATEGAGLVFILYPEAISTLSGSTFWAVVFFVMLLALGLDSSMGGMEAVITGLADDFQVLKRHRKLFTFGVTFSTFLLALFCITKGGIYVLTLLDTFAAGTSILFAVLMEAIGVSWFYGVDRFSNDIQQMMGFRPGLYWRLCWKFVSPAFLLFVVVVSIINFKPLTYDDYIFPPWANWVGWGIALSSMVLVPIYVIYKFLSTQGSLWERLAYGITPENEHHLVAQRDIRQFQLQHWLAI
Compound,"Ki [1, 3]","Ki [1, 4]",Ki [2]
"CNCC[C@H](Oc1cccc2c(C)nccc12)c1cccs1 [Example 65, (S)-N-methyl-3-((1-methylisoquinolin-5-yl)oxy)-3-(thiophen-2-yl)propan-1-amine]",≥ 3000 nM,≥ 3000 nM,100 to 500 nM
"CNCC[C@H](Oc1cccc2cnccc12)c1ccsc1 [Example 68, (S)-3-(isoquinolin-5-yloxy)-N-methyl-3-(thiophen-3-yl)propan-1-amine]",≥ 3000 nM,≥ 3000 nM,< 100 nM
"CNCC[C@H](Oc1cccc2ccncc12)c1ccsc1 [Example 69, (S)-3-(isoquinolin-8-yloxy)-N-methyl-3-(thiophen-3-yl)propan-1-amine]",≥ 3000 nM,≥ 3000 nM,500 to 1000 nM
"CNCCC(Oc1cccc2cnccc12)c1nccs1 (stereo not drawn) [Example 71, 3-(isoquinolin-5-yloxy)-N-methyl-3-(thiazol-2-yl)propan-1-amine]",500 to 3000 nM,500 to 3000 nM,100 to 500 nM
"CNCCC(Oc1ccc2ccncc2c1)c1cccs1 (stereo not drawn) [Example 74, 3-(isoquinolin-7-yloxy)-N-methyl-3-(thiophen-2-yl)propan-1-amine]",≥ 3000 nM,≥ 3000 nM,100 to 500 nM
"CNCC[C@H](Oc1cccc2ncccc12)c1ccc(Cl)s1 [Example 78, (S)-3-(5-Chlorothiophen-2-yl)-N-methyl-3-(quinolin-5-yloxy)propan-1-amine]",500 to 3000 nM,500 to 3000 nM,100 to 500 nM
"CNCC[C@H](Oc1cccc2cnccc12)c1sccc1F [Example 82, (S)-3-(3-Fluorothiophen-2-yl)-3-(isoquinolin-5-yloxy)-N-methylpropan-1-amine]",≥ 3000 nM,≥ 3000 nM,< 100 nM
"CNCC[C@@H](Oc1cccc2cnccc12)c1sccc1F [Example 83, (R)-3-(3-fluorothiophen-2-yl)-3-(isoquinolin-5-yloxy)-N-methylpropan-1-amine]",100 to 500 nM,100 to 500 nM,100 to 500 nM
"CNCC[C@H](Oc1cccc2ncccc12)c1sccc1F [Example 84, (S)-3-(3-Fluorothiophen-2-yl)-N-methyl-3-(quinolin-5-yloxy)propan-1-amine]",500 to 3000 nM,500 to 3000 nM,100 to 500 nM
"CNCC[C@@H](Oc1cccc2ncccc12)c1sccc1F [Example 85, (R)-3-(3-fluorothiophen-2-yl)-N-methyl-3-(quinolin-5-yloxy)propan-1-amine]",500 to 3000 nM,500 to 3000 nM,100 to 500 nM
"CNCC[C@H](Oc1cccc2ccncc12)c1sccc1F [Example 86, (S)-3-(3-Fluorothiophen-2-yl)-3-(isoquinolin-8-yloxy)-N-methylpropan-1-amine]",≥ 3000 nM,≥ 3000 nM,100 to 500 nM
"CNCC[C@@H](Oc1cccc2ccncc12)c1sccc1F [Example 87, (R)-3-(3-fluorothiophen-2-yl)-3-(isoquinolin-8-yloxy)-N-methylpropan-1-amine]",100 to 500 nM,100 to 500 nM,100 to 500 nM
"CNCC[C@@H](Oc1cnc2ccccc2c1)c1cccs1 [Example 94, (R)-N-methyl-3-(quinolin-3-yloxy)-3-(thiophen-2-yl)propan-1-amine]",≥ 3000 nM,≥ 3000 nM,100 to 500 nM

# Other lines, results leading:
"Ki [1, 3]","Ki [1, 4]",Ki [2],Compound
100 to 500 nM,100 to 500 nM,< 100 nM,"CNCCC(Oc1cccc2cnccc12)c1ccsc1 (stereo not drawn) [Example 56, 3-(isoquinolin-5-yloxy)-N-methyl-3-(thiophen-3-yl)propan-1-amine]"
100 to 500 nM,100 to 500 nM,500 to 1000 nM,"CNCCC(Oc1cccc2ccncc12)c1ccsc1 (stereo not drawn) [Example 58, 3-(isoquinolin-8-yloxy)-N-methyl-3-(thiophen-3-yl)propan-1-amine]"
100 to 500 nM,100 to 500 nM,100 to 500 nM,"CNCC[C@@H](Oc1cccc2cnccc12)c1ccsc1 [Example 60, (R)-3-(isoquinolin-5-yloxy)-N-methyl-3-(thiophen-3-yl)propan-1-amine]"
100 to 500 nM,100 to 500 nM,100 to 500 nM,"CNCC[C@@H](Oc1cccc2ccncc12)c1ccsc1 [Example 61, (R)-3-(isoquinolin-8-yloxy)-N-methyl-3-(thiophen-3-yl)propan-1-amine]"
< 100 nM,< 100 nM,500 to 1000 nM,"CNCC[C@@H](Oc1cccc2ccnc(C)c12)c1cccs1 [Example 62, (R)-N-methyl-3-((1-methylisoquinolin-8-yl)oxy)-3-(thiophen-2-yl)propan-1-amine]"
100 to 500 nM,100 to 500 nM,100 to 500 nM,"CNCC[C@H](Oc1cccc2ncccc12)c1ccsc1 [Example 67, (S)-N-methyl-3-(quinolin-5-yloxy)-3-(thiophen-3-yl)propan-1-amine]"
100 to 500 nM,100 to 500 nM,500 to 1000 nM,"CNCCC(Oc1cccc2ncccc12)c1nccs1 (stereo not drawn) [Example 72, N-methyl-3-(quinolin-5-yloxy)-3-(thiazol-2-yl)propan-1-amine]"
< 100 nM,< 100 nM,500 to 1000 nM,"CNCC[C@@H](Oc1cccc2ncccc12)c1ccc(Cl)s1 [Example 79, (R)-3-(5-chlorothiophen-2-yl)-N-methyl-3-(quinolin-5-yloxy)propan-1-amine]"
100 to 500 nM,100 to 500 nM,100 to 500 nM,"CNCC[C@@H](Oc1cccc2ccncc12)c1ccc(F)s1 [Example 81, (R)-3-(5-fluorothiophen-2-yl)-3-(isoquinolin-8-yloxy)-N-methylpropan-1-amine]"
